Source: patent publication US9926315B2, “Triazolopyridine compounds and methods for the treatment of cystic fibrosis” (Flatley Discovery Lab, LLC, priority 2014, dated 2018)

Target: T1, human ΔF508-CFTR (Homo sapiens, UniProt P13569, DEL508-508)
T1 construct: expressed in transfected cells
Assay: CFTR-YFP High Throughput Assay (HTS YFP flux assay, corrector / potentiator protocols)
Type: cell-based
Settings: FRT cells stably expressing human ΔF508-CFTR and YFP-H148Q/I152L
Procedure: Assays for Detecting and Measuring the Effect of Compounds on dF508-CFTR Channels CFRT-YFP High Throughput Assay: Corrector Assay:
The following protocol is designed to selectively screen small molecule compounds for F508del CFTR corrector activities in the HTS YFP flux assay. In this protocol, the cells are incubated with testing compounds for 24 hours, washed with PBS, stimulated with forskolin and a standard potentiator, and read on a 384-well HTS plate reader, such as the Hamamatsu FDDD-6000.
(§1) YFP fluorescence intensity is acquired at high speed before and after iodide buffer is injected to the assay cells. Iodide enters the cells via active CFTR channels in the plasma membrane, and quenches the YFP fluorescence. The rate of fluorescence quenching is proportionally related to the total CFTR activities in the cell membrane. dF508-CFTR corrector accelerates YFP quenching by increasing the number of CFTR molecules in the testing cell plasma membrane.
This method was initially developed for bench top plate readers (Galietta, 2001), and was adapted to the HTS format (Sui, 2010).
Fisher Rat Thyroid (FRT) cells stably expressing both human ΔF508-CFTR and a halide-sensitive yellow fluorescent protein (YFP-H148Q/I152L 25, 22) (Galietta, 2001) were cultured on plastic surface in Coon's modified Ham's F12 medium supplemented with FBS 10%, L-glutamine 2 mM, penicillin 100 U/mL, and streptomycin 100 μg/mL. G418 (0.75-1.0 mg/mL) and zeocin (3.2 μg/mL) were used for selection of FRT cells expressing ΔF508-CFTR and YFP. For primary screening, FRT cells were plated into 384-well black wall, transparent bottom microtiter plates (Costar; Corning Inc.) at a cell density of 20, 000-40, 000 per well. Test compound was applied to the cells at varying concentrations ranging from 2 nM-[…] in either a 2-fold or 3-fold dilution series. Cells were incubated in a cell culture incubator at 37° C. with 5% CO2 for 24-26 h. Assay plates were washed with DPBS media (Thermo, cat#SH30028.02) to remove unbound cells and compound. Stimulation media (25 μL) containing 20 μM Forskolin & 30 μM P3 [6-(Ethyl-phenyl-sulfonyl)-4-oxo-1, 4-dihydro-quinoline-3-carboxylic acid 2-methoxy-benzylamide] in Hams F-12 coon's modified media was added to the plate wells and incubated at room temperature for 60-120 min. 25 μL of HEPES-PBS-I buffer (10 mM HEPES, 1 mM MgCl2, 3 mM KCl, 1 mM CaCl2, 150 mM NaI) was then added and fluorescence quench curves (Excitation 500 nm/Emission 540 nm; exposure 136 ms) were immediately recorded on an FDSS-6000 plate reader (Hamamatsu). Quench rates were derived from least squares fitting of the data (Sui, 2010).
The following protocol is designed to selectively screen small molecule compounds for F508del CFTR potentiator activities in the HTS YFP flux assay. In this protocol, the cells are incubated at 27° C. for 24 hours with homogeneously boosted dF508-CFTR expression in the cell membrane by the low temperature, washed with PBS, stimulated with forskolin, and read on a 384-well HTS plate reader, such as the Hamamatsu […].
as §1, with “dF508del-CFTR potentiators accelerate” for “dF508-CFTR corrector accelerates”, “increasing” for “increasing the number of”, “activities” for “molecules”
Fisher Rat Thyroid (FRT) cells stably expressing both human ΔF508-CFTR and a halide-sensitive yellow fluorescent protein (YFP-H148Q/I152L 25, 22) (Galietta, 2001) were cultured on plastic surface in Coon's modified Ham's F12 medium supplemented with FBS 10%, L-glutamine 2 mM, penicillin 100 U/mL, and streptomycin 100 μg/mL. G418 (0.75-1.0 mg/mL) and zeocin (3.2 μg/mL) were used for selection of FRT cells expressing ΔF508-CFTR and YFP. […]

T1 sequence (P13569 with tags, fused parts or gaps DEL508-508): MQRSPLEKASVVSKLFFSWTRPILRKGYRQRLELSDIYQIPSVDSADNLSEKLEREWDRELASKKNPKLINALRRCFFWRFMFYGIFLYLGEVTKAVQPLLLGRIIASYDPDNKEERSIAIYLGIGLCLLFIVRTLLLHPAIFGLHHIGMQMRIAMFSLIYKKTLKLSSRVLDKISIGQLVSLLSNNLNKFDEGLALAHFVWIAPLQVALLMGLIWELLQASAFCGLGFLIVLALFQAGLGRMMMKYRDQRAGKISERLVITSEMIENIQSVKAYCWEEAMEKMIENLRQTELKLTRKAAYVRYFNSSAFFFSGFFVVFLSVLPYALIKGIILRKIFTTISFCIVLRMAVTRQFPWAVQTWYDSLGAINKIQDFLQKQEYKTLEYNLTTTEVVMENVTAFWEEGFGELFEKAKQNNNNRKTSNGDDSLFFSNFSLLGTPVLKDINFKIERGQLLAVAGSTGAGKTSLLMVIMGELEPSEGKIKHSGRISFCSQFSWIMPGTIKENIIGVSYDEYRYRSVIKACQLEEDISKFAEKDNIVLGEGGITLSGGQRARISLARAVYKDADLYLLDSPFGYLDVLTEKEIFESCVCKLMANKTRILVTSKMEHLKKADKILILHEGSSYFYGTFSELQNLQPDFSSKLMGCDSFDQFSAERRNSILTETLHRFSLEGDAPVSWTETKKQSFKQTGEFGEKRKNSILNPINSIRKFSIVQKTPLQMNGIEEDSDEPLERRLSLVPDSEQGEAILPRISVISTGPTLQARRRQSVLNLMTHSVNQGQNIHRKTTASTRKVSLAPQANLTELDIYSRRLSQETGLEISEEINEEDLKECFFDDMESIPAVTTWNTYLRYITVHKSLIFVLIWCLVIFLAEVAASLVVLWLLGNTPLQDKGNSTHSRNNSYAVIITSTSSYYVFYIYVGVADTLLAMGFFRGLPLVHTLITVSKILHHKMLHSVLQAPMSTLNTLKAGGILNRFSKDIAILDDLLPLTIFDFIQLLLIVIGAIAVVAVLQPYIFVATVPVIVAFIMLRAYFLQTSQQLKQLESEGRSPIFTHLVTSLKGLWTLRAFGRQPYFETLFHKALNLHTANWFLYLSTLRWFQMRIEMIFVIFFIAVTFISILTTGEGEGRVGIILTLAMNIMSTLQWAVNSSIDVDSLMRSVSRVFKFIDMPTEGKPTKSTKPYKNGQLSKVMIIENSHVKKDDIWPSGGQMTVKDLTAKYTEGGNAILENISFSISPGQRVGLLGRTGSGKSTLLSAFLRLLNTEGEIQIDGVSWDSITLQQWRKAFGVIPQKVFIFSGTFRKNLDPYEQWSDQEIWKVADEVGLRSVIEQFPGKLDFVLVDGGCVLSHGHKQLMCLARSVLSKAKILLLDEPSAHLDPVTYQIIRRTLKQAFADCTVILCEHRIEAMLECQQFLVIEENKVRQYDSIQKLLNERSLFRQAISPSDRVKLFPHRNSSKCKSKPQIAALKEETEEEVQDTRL

- EC50: < 1000 nM
- Emax (normalized to positive control, read-out: Emax (% Efficacy, EMax normalized to the positive control)): > 80%
Compound: Cc1ccc(CNc2nc3ccc(S(=O)(=O)N4CCCCC4)cn3n2)cc1 [Example 102]
